Data set [1] can be described thus: Cmax in human at […], po after 3 months. Format: ADME, organism-based. Also on record: route oral. The following applies: in vivo.
Data set [2] can be described thus: Tmax in human at […], po after 3 months. The following applies: in vivo. In kind it is ADME, organism-based.
Data set [3] in a line: Aqueous solubility of the compound. In kind it is physicochemical.

≈ marks a conversion by molar mass, not a printed value.

For one compound, Cmax, Tmax and solubility results are on record in ChEMBL document CHEMBL4373716, “Curcumin as tyrosine kinase inhibitor in cancer treatment” (Eur J Med Chem, 2019).

Consider `COc1cc(/C=C/C(=O)CC(=O)/C=C/c2ccc(O)c(OC)c2)ccc1O` [CURCUMIN], for which the highest level in data set [1] (Cmax) was 1770 nM. Further, the time to peak (Tmax) in data set [2] was 1 to 2 h. This compound also displayed a solubility in data set [3] of 1000 to 10000 µg/mL (≈ 2.71 to 27.1 mM).
